For one assay, the target named is T1, arrestin-3 (1-393) (Bos taurus, UniProt P32120).
T1 construct: gene ARRB2; residues 1-393 (stop codon at L394, deletes 394-408), pTrcHisB, E. coli BL21 Gold, purified by heparin, Q/SP and size exclusion columns; 43 kD monomer, 134 kD trimer with IP6
Briefly: microscale thermophoresis, two-site fit, pre-IR fluorescence change. The format is binding. Background: MST reads how a fluorescent partner responds to local heating, with and without ligand.

The next assay deals with His tagged JNK3α2 (UniProt P53779). Briefly: pull-down; His tagged JNK3α2 (10 µg) on Ni-NTA resin, arrestin-3 (10 µg) added with and without 100 µM IP6; wash 20 mM MOPS pH 7.4, 150 mM NaCl, 25 mM imidazole; eluted with 250 mM imidazole; Coomassie and Western, densitometry.
His tagged JNK3α2, sequence (P53779 whole entry): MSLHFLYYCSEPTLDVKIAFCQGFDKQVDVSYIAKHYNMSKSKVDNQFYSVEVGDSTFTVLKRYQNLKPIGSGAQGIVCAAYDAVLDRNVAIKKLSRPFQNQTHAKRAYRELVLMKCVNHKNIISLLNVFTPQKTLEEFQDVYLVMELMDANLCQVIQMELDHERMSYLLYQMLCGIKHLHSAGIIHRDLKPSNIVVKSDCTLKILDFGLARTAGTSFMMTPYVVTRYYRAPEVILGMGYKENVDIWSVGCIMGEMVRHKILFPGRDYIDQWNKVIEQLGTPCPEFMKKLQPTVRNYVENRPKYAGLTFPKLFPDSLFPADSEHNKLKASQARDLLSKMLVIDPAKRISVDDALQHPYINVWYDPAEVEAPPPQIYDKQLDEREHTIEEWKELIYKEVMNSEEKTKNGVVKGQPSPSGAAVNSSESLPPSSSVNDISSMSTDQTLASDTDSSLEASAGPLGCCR

T1 sequence (P32120 1-393 isoform P32120-2): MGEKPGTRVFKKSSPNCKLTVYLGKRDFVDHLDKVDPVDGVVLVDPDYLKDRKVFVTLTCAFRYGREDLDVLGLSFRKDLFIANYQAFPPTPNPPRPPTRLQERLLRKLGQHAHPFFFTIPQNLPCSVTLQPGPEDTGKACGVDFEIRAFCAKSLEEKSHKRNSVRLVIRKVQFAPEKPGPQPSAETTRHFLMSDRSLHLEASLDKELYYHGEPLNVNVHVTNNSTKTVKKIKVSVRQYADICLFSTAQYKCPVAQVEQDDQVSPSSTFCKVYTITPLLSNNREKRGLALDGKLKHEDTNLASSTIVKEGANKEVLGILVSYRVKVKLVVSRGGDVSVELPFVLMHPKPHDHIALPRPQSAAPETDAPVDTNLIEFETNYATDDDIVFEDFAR

In general, Kd refers to the free concentration of one partner at which half of the binding sites on the other are occupied at equilibrium, for simple one-to-one binding. Low readings indicate higher affinity, high ones lower affinity. In the case of `O=P(O)(O)O[C@H]1[C@H](OP(=O)(O)O)[C@@H](OP(=O)(O)O)[C@H](OP(=O)(O)O)[C@@H](OP(=O)(O)O)[C@H]1OP(=O)(O)O` [IP6], at arrestin-3 (1-393), the Kd worked out at 57 nM. Take “bovine arrestin-3 (1-393) (domain or fragment)”: the fold change of bound arrestin-3 with 100 µM IP6 against without IP6 in the assay with His tagged JNK3α2 was found to be 2 fold.

The values are drawn from paper PMC5681653, “Structural basis of arrestin-3 activation and signaling” (Nature Communications, 2017).
